# Measurements as given in article PMC9494668 (ACS Omega, 2022).
# Legend:
# [1] = test system: C26 colon carcinoma cell line; test: MTT cytotoxicity, C26; assay type: cell-based; conditions: 48 h, read-out: Anticancer activity IC50, C26
# [2] = test system: Escherichia coli ATCC 25922; test: Microtitre broth dilution MIC, Escherichia coli; assay type: cell-based; conditions: ATCC25922, read-out: MIC, EC
# [3] = test system: Candida albicans ATCC 10321; test: microbe, parasite or virus in culture; assay type: cell-based; conditions: ATCC10321, read-out: MIC, CA
# [4] = test system: Streptococcus faecalis ATCC 29212; test: Microtitre broth dilution MIC, Streptococcus faecalis; assay type: cell-based; conditions: Enterococcus faecalis, ATCC29212, read-out: MIC, SF
# [5] = test system: methicillin-resistant strains of Staphylococcus aureus ATCC 43300; test: Microtitre broth dilution MIC, MRSA; assay type: cell-based; conditions: ATCC43300|MRSA, read-out: MIC, MRSA
# [6] = test system: methicillin-susceptible strains of Staphylococcus aureus ATCC 29213; test: Microtitre broth dilution MIC, MSSA; assay type: cell-based; conditions: ATCC29213|MSSA, read-out: MIC, MSSA
# [7] = test system: Salmonella enterica ATCC 10428; test: Microtitre broth dilution MIC, Salmonella enterica; assay type: cell-based; conditions: ATCC10428, read-out: MIC, SE
# [8] = test system: HepG2 human hepatocyte carcinoma cell line; test: MTT cytotoxicity, HepG2; assay type: cell-based; conditions: HepG2, 48 h, read-out: Anticancer activity IC50, HepG2
# [9] = test system: Pseudomonas aeruginosa ATCC 27853; test: Microtitre broth dilution MIC, Pseudomonas aeruginosa; assay type: cell-based; conditions: ATCC27853, read-out: MIC, PA
# [10] = test system: Aspergillus niger ATCC 16404; test: microbe, parasite or virus in culture; assay type: cell-based; conditions: ATCC16404, read-out: MIC, AN
# [11] = test system: H69PR human small cell lung cancer cell line; test: MTT cytotoxicity, H69PR; assay type: cell-based; conditions: 48 h, read-out: Anticancer activity IC50, H69PR
# [12] = test system: MCF7 human breast cancer cell line; test: MTT cytotoxicity, MCF7; assay type: cell-based; conditions: MCF7, 48 h, read-out: Anticancer activity IC50, MCF7
# [13] = test system: Candida albicans, Candida glabrata, Candida krusei, and Candida tropicalis; conditions: cited from earlier work
# VEGFR-2 = VEGFR-2 (Homo sapiens, UniProt P35968); test: In vitro VEGFR-2 kinase inhibition assay; assay type: biochemical
# Sequence of VEGFR-2 (P35968 20-1356): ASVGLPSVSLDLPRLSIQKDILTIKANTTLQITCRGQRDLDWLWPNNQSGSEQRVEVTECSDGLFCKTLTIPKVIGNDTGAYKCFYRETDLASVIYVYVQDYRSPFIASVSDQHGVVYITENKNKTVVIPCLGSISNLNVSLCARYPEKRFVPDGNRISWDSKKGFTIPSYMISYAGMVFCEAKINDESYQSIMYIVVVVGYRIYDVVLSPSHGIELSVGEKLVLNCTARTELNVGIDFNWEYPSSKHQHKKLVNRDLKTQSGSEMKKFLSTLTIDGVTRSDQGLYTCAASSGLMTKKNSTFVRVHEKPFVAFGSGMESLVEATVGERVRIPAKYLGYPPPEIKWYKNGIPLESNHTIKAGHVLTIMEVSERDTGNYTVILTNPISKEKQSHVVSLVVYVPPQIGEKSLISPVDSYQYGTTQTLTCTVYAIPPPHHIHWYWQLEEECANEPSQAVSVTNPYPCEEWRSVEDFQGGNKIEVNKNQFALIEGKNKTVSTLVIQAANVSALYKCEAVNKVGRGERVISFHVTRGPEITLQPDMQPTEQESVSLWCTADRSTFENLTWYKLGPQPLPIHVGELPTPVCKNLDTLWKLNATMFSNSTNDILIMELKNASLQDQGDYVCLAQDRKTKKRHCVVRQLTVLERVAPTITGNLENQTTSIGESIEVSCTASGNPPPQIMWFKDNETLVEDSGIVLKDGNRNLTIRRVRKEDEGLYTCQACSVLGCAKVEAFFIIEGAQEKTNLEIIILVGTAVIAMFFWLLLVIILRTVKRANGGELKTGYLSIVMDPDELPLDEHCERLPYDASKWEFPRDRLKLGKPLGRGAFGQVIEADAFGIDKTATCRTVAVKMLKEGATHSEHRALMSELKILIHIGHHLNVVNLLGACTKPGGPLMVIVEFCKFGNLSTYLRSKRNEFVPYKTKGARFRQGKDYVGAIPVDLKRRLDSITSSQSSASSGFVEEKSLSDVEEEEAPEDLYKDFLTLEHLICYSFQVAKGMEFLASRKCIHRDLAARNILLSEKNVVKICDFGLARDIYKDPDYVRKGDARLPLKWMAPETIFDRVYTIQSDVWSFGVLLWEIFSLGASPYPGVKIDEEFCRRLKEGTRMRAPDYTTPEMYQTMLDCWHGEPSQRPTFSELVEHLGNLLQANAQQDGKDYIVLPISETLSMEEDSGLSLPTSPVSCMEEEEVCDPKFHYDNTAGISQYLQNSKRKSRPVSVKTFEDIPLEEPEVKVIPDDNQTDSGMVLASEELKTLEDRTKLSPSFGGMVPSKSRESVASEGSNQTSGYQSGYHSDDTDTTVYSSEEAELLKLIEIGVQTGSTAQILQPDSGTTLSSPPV
# DHFR = target: T1, DHFR (Homo sapiens, UniProt P00374); test: In vitro dihydrofolate reductase inhibition assay; assay type: biochemical; conditions: IC50 DHFR inhibitory activity, IC50 ± SEM
# T1 sequence (P00374 1-187): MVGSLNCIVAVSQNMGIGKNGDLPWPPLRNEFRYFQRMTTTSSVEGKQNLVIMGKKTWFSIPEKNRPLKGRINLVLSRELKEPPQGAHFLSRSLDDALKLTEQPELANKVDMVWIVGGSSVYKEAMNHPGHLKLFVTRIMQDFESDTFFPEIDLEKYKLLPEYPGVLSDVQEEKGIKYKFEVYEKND
# [14] = test system: bacterial strains (EC, PA, SF, SE, MSSA, MRSA) and fungi (CA, AN); test: Microtitre broth dilution MIC, stated over several strains; assay type: cell-based; conditions: Staphylococcus aureus, MRSA|MSSA, read-out: MIC against SE, SF, MSSA, and MRSA
Compound,IC50 [1] [µM],MIC [2] [µg/mL],MIC [3] [µg/mL],MIC [4] [µg/mL],MIC [5] [µg/mL],MIC [6] [µg/mL],MIC [7] [µg/mL],IC50 [8] [µM],MIC [9] [µg/mL],MIC [10] [µg/mL],IC50 [11] [µM],IC50 [12] [µM],"MIC50, Candida species [13] [µg/mL]","IC50 (VEGFR-2; IC50 VEGFR-2 inhibitory activity, IC50 ± SEM) [µM]",inhibitory activity on VEGFR-2 relative to DHFR (VEGFR-2; times better on the VEGFR-2 receptor than the DHFR receptor),IC50 (DHFR) [µM],MIC [14] [µg/mL]
"COc1ccc(CNC(=O)c2cc(O)c3c(OC)cc(OC)cc3c2)cc1 [6b, 4-Hydroxy-5,7-dimethoxy-N-(4-methoxybenzyl)-2-naphthamide]",12.3 ± 2.15,64,64,32,32,32,32,14 ± 1.4,128,256,28.5 ± 3.29,13.3 ± 2.69,,,,,
"O=C(O)c1cn(C2CC2)c2cc(N3CCNCC3)c(F)cc2c1=O [Cipro, ciprofloxacin, reference compound]",,16,,8,16,8,8,,16,,,,,,,,
"COc1cc(OC)c2c(O)cc(C(=O)NCCCN3CCOCC3)cc2c1 [4b, 4-Hydroxy-5,7-dimethoxy-N-(3-morpholinopropyl)-2-naphthamide]",25.1 ± 3.23,128,64,128,256,64,64,17.8 ± 2.46,128,256,53.7 ± 3.55,18.6 ± 1.84,,,,,
"COc1cc(OC)c2cc(C(=O)NCc3ccc(Br)cc3)cc(O)c2c1 [7a, N-(4-bromobenzyl)-4-hydroxy-6,8-dimethoxy-2-naphthamide]",18.5 ± 1.73,64,128,64,128,,64,16.7 ± 1.68,64,256,23 ± 2.87,19.8 ± 1.59,,,,,
CN(C/C=C/c1ccccc1)Cc1cccc2ccccc12 [naftifine],,,,,,,,,,,,,0.25 to 2.00,,,,
"COc1cc(OC)c2c(O)cc(C(=O)NCc3ccc(C)cc3)cc2c1 [5b, 4-Hydroxy-5,7-dimethoxy-N-(4-methylbenzyl)-2-naphthamide]",3.59 ± 1.04,64,64,32,32,16,32,8.38 ± 1.14,64,256,28.4 ± 3.7,6.75 ± 1.95,,0.623 ± 0.056,15–20 times,9.09 ± 0.511,16 to 32
"COc1cc(OC)c2cc(C(=O)NCc3ccc(C)cc3)cc(O)c2c1 [5a, 4-Hydroxy-6,8-dimethoxy-N-(4-methylbenzyl)-2-naphthamide]",9.21 ± 2.3,64,128,64,128,,64,13.6 ± 1.37,64,256,34.2 ± 5.64,10.3 ± 2.11,,,,,
